Paper PMC9012943, “Oral remdesivir derivative VV116 is a potent inhibitor of respiratory syncytial virus with efficacy in mouse model” (Signal Transduction and Targeted Therapy, 2022)
Like-named read-outs stand apart in the source and are kept apart here.

Key:
[1] = Pharmacokinetic study in Balb/c mice; type: in vivo; settings: for Cmax: X1 in blood
Protocol: A total of nine Balb/c mice (N = 3 for each group, male) were divided into three groups, and fasted for 12 h before dosing. The three groups received oral dose of VV116 dissolved in 40%PEG400+10% Kolliphor® HS15+50% ultrapure water at 25 mg/kg, 50 mg/kg and 100 mg/kg, respectively. At 5 min, 0.25, 0.5, 1.0, 2.0, 4.0, 6.0, 8.0, and 24 h post-dosing, blood samples were collected from the jugular vein or the submandibular vein into EDTA-K2 tubes, and immediately mixed with acetonitrile (20 µL blood + 80 μL acetonitrile). The concentrations of analytes in the blood were analyzed by LC-MS/MS.

[2] = Toxicokinetics in SD rats; type: in vivo
Protocol: Groups of male and female SD rats (4 animals/sex/group) received repeated oral doses of VV116 (dissolved in 40%PEG400+10% Kolliphor® HS15+50% ultrapure water) at 100 (low), 200 (mild) and 500 mg/kg/d (high) for 14 days. At day 1 and day 14, blood samples were collected from the jugular vein into EDTA-K2 tubes at various time points post-dose. Plasma samples were obtained following general procedures and the concentrations of analytes in the samples were analyzed by LC-MS/MS.

[3] = Tissue distribution study in Balb/c mice; type: in vivo; settings: VV116 oral 100 mg/kg
Protocol: A total of thirty Balb/c mice were divided into five groups (3 animals/sex/group). VV116 was intragastrically administered at 100 mg/kg dissolved in 40%PEG400+10% Kolliphor® HS15+50%. At 0 (not administered), 0.25, 2, 6, and 24 h post-dosing, the five groups of mice were anesthetized, respectively. Blood samples were collected, and tissues including liver and lung were harvested. Tissue samples were individually homogenized, and blood samples were processed as above. The concentrations of X1 in liver, lung and blood were analyzed by LC-MS/MS.

[4] = Cellular toxicity in A549 cells (WST-8 cell viability); type: cell-based; settings: human; A549 cells, 48 h; read-out: CC50
Protocol: Cell viability was performed in 96-well plate with triplicate for each concentration. All drugs were diluted 2 times with 9 gradients starting at 500 micromores in maintenance medium (DMEM containing 2% FBS). After 48 h incubation, the supernatant was removed, and 10 μL WST-8 (2-(2-methoxy-4-(phenyl)-3-(4-(phenyl) to 5 (2, 4-sulpho benzene) -2 h-tetrazolium monosodium salt) in maintenance medium was added in medium. Plates were measured at 450 nm wavelength using spectrophotometer (BioTek) after 2 h incubation, and cell viability was calculated.

RSV A2 = experiment: Inhibition of RSV A2 replication in A549 cells (qRT-PCR); type: cell-based, respiratory syncytial virus
Protocol: A549, HEp-2 or NHBE cells were plated into 48 well-plate and incubated overnight. Upon reaching 80% cell confluence, cells were infected RSV A2 (at an MOI of 2 in A549, MOI of 0.5 in HEp-2, and MOI of 1 in NHBE cells) for 2 h after cells were incubated for 1 h with varying concentrations of drugs. Then, the virus-drug mixture was removed, and cells were cultured with drug-containing medium. At 48 h post inoculation, total RNAs were extracted from cells and then in reverse transcription using PrimeScript RT reagent Kit with gDNA Eraser (TaKaRa). For determining the viral copies, absolute quantitative RT-PCR was performed with TB Green® Premix Ex Taq^TM II (TaKaRa). RSV A2 F fragment was quantified with primers 5’-[…]-3’; and 5’-[…]-3’

[2H]c1cc([C@]2(C#N)O[C@H](CO)[C@@H](O)[C@H]2O)n2ncnc(N)c12 [X1]
Time for blood concentration of X1 to reach Cmax ([1]; Balb/c mice, following oral administration of VV116): ≤ 0.5 h
Cmax ([1]; male, mouse, whole blood, po, Balb/c mice, VV116 p.o. 25 mg/kg, read-out: Cmax): 5360 ng/mL
half-life ([1]; male, mouse, whole blood, X1, Balb/c mice, VV116 oral 25 to 100 mg/kg, read-out: elimination half-life): 2.3 to 4.25 h
Cmax ([1]; male, mouse, whole blood, Balb/c mice, VV116 oral 25 mg/kg, read-out: mean Cmax): 18.4 µM
AUC0-t ([2]; both sexes, rat, plasma, po, X1, SD rats, VV116 p.o. 200 mg/kg, Total, Day 1): 85200 ng·h/mL
AUC0–t of X1 at rat NOAEL (200 mg/kg) relative to that at 50 mg/kg in mice ([2]; in vivo): ~ 3.5 folds
concentration of X1 in the lung relative to that in the liver [3]: about half
CC50 at 48 h [4]: > 500 µM
SI (RSV A2): > 314
EC90 (RSV A2; human respiratory syncytial virus, RSV A2): 3.56 ± 0.63 µM
EC50 (RSV A2; human respiratory syncytial virus, RSV A2 MOI 2, 48 h): 1.59 ± 0.49 µM
